Read-outs that look alike come from different tables or passages of the source.
Columns and labels:
[1] = mouse, in vivo; cited from earlier work
[2] = rats, inhalation; cited from earlier work
[3] = in vitro and in vivo; cited from earlier work
[4] = system: vaccinia virus
[5] = system: lymphocytic choriomeningitis virus (LCMV)
[6] = system: yellow fever virus (YFV)
[7] = system: West Nile virus (WNV)
[8] = system: monkeypox virus (MPV)

Structure (SMILES): O=C1CCO1 [betapropiolactone]
- carcinogenicity [1]: produce squamous cell carcinomas, lymphomas and hepatomas

Structure (SMILES): C=O [formaldehyde]
- carcinogenicity [2]: induces squamous-cell carcinoma of the nasal cavity
- genotoxicity [3]: genotoxic in vitro and in vivo

Structure (SMILES): OO [H2O2, hydrogen peroxide]
- H2O2 concentration after which no infectious virus could be detected [4]: ≤ 0.03%
- viral titer after treatment [4]: reduced to below the limit of detection
- H2O2 concentration at which infectivity is eliminated [5]: < 0.1%
- viral titer after treatment [5]: reduced to below the limit of detection
- viral titer after treatment [6]: reduced to below the limit of detection
- viral titer after treatment [7]: reduced to below the limit of detection
- viral titer after treatment [8]: reduced to below the limit of detection

From US10143740B2, “Inactivating pathogens with oxidizing agents for vaccine production” (priority 2005, dated 2018)
